1 compound from patent publication US5587402A, “Regression of mammalian leukemia cell tumors” (priority 1995, dated 1996) can be followed below.

In series [1] the test system is isoprenylation of 21-26 kDa proteins in HT29 cells. The series is described as follows: Protein isoprenylation in HT29 cells. It is filed as cell-based. Conditions: Homo sapiens, HT-29; 1 mM; read-out: decrease of isoprenylation of 21-26 kDa proteins. As for the experimental part:
"Isoprenylation" is the addition of a multiple of the 5 carbon isoprene unit to a protein. Our experiments in isoprenylation are reported at Crowell, et al. 1991, J. Biol. Chem. 266: 17679-17685. To test whether a specific monoterpene affects isoprenylation of proteins in cells, cell extracts were incubated with a radioactive isoprene precursor and 0-5 mM of the test monoterpene and then subjected to SDS-PAGE. Because they carried a radioactive label, isoprenylated proteins were visualized by fluorography. As a control, cells were incubated without the monoterpene.
Cells were harvested after trypsin treatment, washed twice with phosphate-buffered saline, suspended in electrophoresis sample buffer (Laemmli, U.K., 1970, Nature 227: 680-685), and either analyzed immediately or stored at -20° C. Whole cell extracts were analyzed by SDS-PAGE on 16-cm×18-cm×0.75-mm gels by the method of Laemmli (supra). The acrylamide concentrations were 5% for the stacking gel and 12% for the separating gel. […] Some fluorograms were analyzed further by densitometry. Where indicated, gels were sliced, dissolved at 50° C. for 3 hours in 0.5 ml of water +0.5 ml of Solvable (Amersham), and then analyzed by scintillation spectrometry in 10 ml of Atomlight (Amersham) mixture. Protein content was measured by the method of Lowry, et al. (1951, J. Biol. Chem. 193: 265-275). […]

The subject of series [2] is nontransformed FDC-P1 cells. Nature of the series: Cell cycle distribution of nontransformed FDC-P1 cells. It is filed as cell-based, murine. Conditions: for Cell cycle distribution (% > GO /G1): 24 hours, untreated control 62. As for the experimental part:
Table 3 tabulates the effect of P-OH on cell cycle distribution of nontransformed and p210 transformed FDC-P1 cells.
^1 Cells were plated at 2.5 × 10^5 per ml in duplicate well
of a 24well plate in the presence of 10% WEHI3-conditioned media as a
source of IL3 and with the indicated concentration of P--OH. After 24
hours, the cells were fixed in ethanol, permeabilized and stained with
propidium iodide, then analyzed for DNA content by flow cytometry.
^2 FDCP1 = nontransformed cells, Fp210.1 = 210transformed FDCP1 cells

In another series the test system is NIH3T3 cells. Nature of the series: Inhibition of NIH3T3 cell growth. It is filed as cell-based, mouse. As to conditions: FIG. 3. As for the experimental part: NIH3T3 (mouse embryo) cells were obtained from the American Type Culture Collection and were grown in Dulbecco's modified Eagle's medium supplemented with 10% calf serum. M600B immortalized human mammary epithelial cells (Stampfer, M. R., 1985, J. Tissue Culture Methods 9: 107-115) were obtained from Dr. Martha Stampfer and were grown in supplemented HCDB 170 medium (Hammond, et al. (1984) Proc. Natl. Acad. Sci U.S.A. 81: 5435-5439), as described previously (Stampfer, et al. (1985) Proc. Natl. Acad. Sci U.S.A. 82: 2394-2398; Eldridge, et al. (1989) Cancer Res. 49: 4326-4331).
All cells were maintained in 100-mm dishes at 37° C. in a humidified 5% CO2 atmosphere. Viable cells were distinguished from nonviable cells by counting azure II/methylene blue-stained colonies 10 days after the cells were plated at a density of 100 cells per dish. Trypan blue exclusion was measured by incubating cells for 1 minute with one drop of trypan blue per 10 ml of cells. Viable (colorless) and nonviable (blue) cells were then counted on a hemocytometer.
Additionally, growth of HT29 (human colon adenocarcinoma) cells was inhibited by 80% by 1 mM perillyl alcohol.

A short description of series [3]: Pharmacologic analysis of serum concentration in rats. It is filed as in vivo. As to conditions: rats fed 2% perillyl alcohol. An excerpt: In light of these observations, and our belief that p21^ras may be a target for perillyl alcohol activity in bcr/abl-transformed cells, it may be relevant that cellular ras activity is required for proliferating cells to pass through G1 (Dobrowski, et al., Mol. Cell Biol. 14: 5441-49, 1994).

Series [4] in a line: Toxicity of dietary perillyl alcohol in rats. It is filed as in vivo, Wistar-Furth female rats. As for the experimental part:
We used Wistar-Furth female rats for in vivo studies. Wistar-Furth female rats were obtained from Harlan Sprague-Dawley, Inc., (Madison, Wis.). All rats, arriving at 43-48 days of age, were housed at four rats per cage in wire-bottom metal cages and all were maintained with a light/dark cycle of 12 hours. Rates were provided Teklad Lab blox chow and acidified water ad libitum.
In the pair-feeding study, a group of 70 mammals was treated with DMBA. Beginning four weeks post-carcinogen administration, mammals were weighed and palpated weekly. Upon palpation of the first mammary tumor(s) (diameter≥3 mm), mammals were randomly assigned to control or 2.5% (w/w) perillyl alcohol diet and pair-fed.
Perillyl alcohol (>96% pure by GC analysis, Aldrich, Milwaukee, Wis.) and Teklad 4% mouse/rat diet meal were thoroughly mixed and stored at -20° C. Fresh diets were make every 7-10 days. All mammals were provided fresh diet daily to minimize evaporation of the monoterpenes. For pair-feeding, the quantity of diet consumed by the monoterpene-fed mammals was measured every 24 hours and the assigned partner was pair-fed accordingly.

Series [5] concerns isoprenylation of 21-26 kDa proteins in M600B cells. Nature of the series: Protein isoprenylation in M600B human mammary epithelial cells. It is filed as cell-based.

Each structure is given as a SMILES string. Entries after “also recorded” stand apart in the source; their conditions may differ.

With `C=C(C)[C@@H]1CC=C(CO)CC1` [perillyl alcohol], in series [1], the inhibition at 1000 µM turned out to be 40%. Moreover, the entries for the “Cell cycle distribution (% > GO /G1)” value in series [2] (100 μM P--OH) and in series [2] (500 μM P--OH) were 57% and 49%, respectively. For the same compound, the “changes in the cell cycle distribution” value in series [2] (up to 500 μM) is recorded as “only minor changes”. The “inhibition of cell growth” value in the series with NIH3T3 cells is “significantly inhibited cell growth in a dose-dependent manner”. Further, the “serum concentration relative to the in vitro effective concentration range” value in series [3] was “within the effective concentration range observed in these in vitro experiments”. For the same compound, the “maximum dose tolerated (diet)” value in series [4] (diet, data not shown) turned out to be 2.5%. In addition, the body weight entry in series [4] (perillyl alcohol-fed versus control, FIG. 8) is “initial weight loss followed by weight gain and a plateau; also recorded: did not achieve weights similar to controls”. The “isoprenylation of 21-26 kDa proteins” value in series [5] (3 mM, FIG. 2) is “inhibited significantly”. In series [5] (all cell types examined), the inhibition of isoprenylation result was “inhibition of isoprenylation”.
